Paper PMC11900971 (International Journal of Molecular Sciences, 2025)
Where two headings read alike, the source gives them in different places.

Key:
[1] = tested on: Plasmodium falciparum, strain NF54, erythrocytic stages
[2] = tested on: L6 cells (rat skeletal myoblasts); assay: cells; details: L6, read-out: Cyt L6 IC50
[3] = tested on: Plasmodium falciparum, strain NF54, erythrocytic stages; assay: microbe, parasite or virus in culture
[4] = tested on: Trypanosoma brucei rhodesiense, STIB 900 strain, bloodstream forms; assay: microbe, parasite or virus in culture
[5] = NF54, read-out: P. falc. pIC50 (converted)
[6] = read-out: T. b. rhod. pIC50 (converted)

Structure (SMILES)	P. falc. pIC50 [1]	IC50 [2] [µM]	IC50 ([3]; NF54, read-out: P. falc. IC50) [µM]	IC50 [3, 5] [µM]	IC50 ([4]; read-out: T. b. rhod. IC50) [µM]	IC50 [4, 6] [µM]
CC1=C(Cc2cccc(NC(=O)CCC(F)(F)F)c2)C(=O)c2ccccc2C1=O [Compound 2o, 2-Methyl-3-{[3-(4,4,4-trifluorobutanamido)phenyl]methyl}-1,4-naphthoquinone]	6.17	87.5	0.67	0.631	50.8	51.3
CC1=C(Cc2ccc(F)cc2)C(=O)c2ccccc2C1=O [Compound 2p, 2-[(4-Fluorophenyl)methyl]-3-methyl-1,4-naphthoquinone]		51.1	0.043	0.0427	33.2	33.1
CC1=C(Cc2ccc(OC(F)(F)F)cc2)C(=O)c2ccccc2C1=O [Compound 2q, 2-Methyl-3-{[4-(trifluoromethoxy)phenyl]methyl}-1,4-naphthoquinone]		123	0.029	0.0288	81.6	81.3
CC1=C(Cc2cccc(OC(F)(F)F)c2)C(=O)c2ccccc2C1=O [Compound 2r, 2-Methyl-3-{[3-(trifluoromethoxy)phenyl]methyl}-1,4-naphthoquinone]		80.5	0.049	0.049	26.1	26.3
CC1=C(Cc2cc(OC(F)(F)F)ccc2F)C(=O)c2ccccc2C1=O [Compound 2s, 2-{[2-Fluoro-5-(trifluoromethoxy)phenyl]methyl}-3-methyl-1,4-naphthoquinone]		83.2	0.038	0.038	75.8	75.9
O=C1C=C(Cc2ccccc2)C(=O)c2ccccc21 [Compound 4a, 2-Benzyl-1,4-naphthoquinone]		61.6	2.75	2.75	0.318	0.316
O=C1C=C(Cc2ccc(C(F)(F)F)cc2)C(=O)c2ccccc21 [Compound 4b, 2-{[4-(Trifluoromethyl)phenyl]methyl}-1,4-naphthoquinone]		19.2	0.686	0.692	0.503	0.501
O=C1C=C(Cc2ccc(C(F)(F)F)cc2F)C(=O)c2ccccc21 [Compound 4c, 2-{[2-Fluoro-4-(trifluoromethyl)phenyl]methyl}-1,4-naphthoquinone]		37	1.76	1.78	0.79	0.794
O=C1C=C(Cc2ccc(F)cc2C(F)(F)F)C(=O)c2ccccc21 [Compound 4d, 2-{[4-Fluoro-2-(trifluoromethyl)phenyl]methyl}-1,4-naphthoquinone]		38.4	2.31	2.29	1.74	1.74
O=C1C=C(Cc2ccc(Cl)nc2)C(=O)c2ccccc21 [Compound 4e, 2-[(6-Chloropyridin-3-yl)methyl]-1,4-naphthoquinone]		3.94	2.01	2	0.522	0.525
O=C1C(Cc2ccccc2)=C(C(F)(F)F)C(=O)c2ccccc21 [Compound 5a, 2-Benzyl-3-(trifluoromethyl)-1,4-naphthoquinone]		10.8	3.8	3.8	1.88	1.91
O=C1C(Cc2ccc(C(F)(F)F)cc2)=C(C(F)(F)F)C(=O)c2ccccc21 [Compound 5b, 2-(Trifluoromethyl)-3-{[4-(trifluoromethyl)phenyl]methyl}-1,4-naphthoquinone]		2	1.46	1.45	1.96	1.95
O=C1C(Cc2ccc(C(F)(F)F)cc2F)=C(C(F)(F)F)C(=O)c2ccccc21 [Compound 5c, 2-{[2-Fluoro-4-(trifluoromethyl)phenyl]methyl}-3-(trifluoromethyl)-1,4-naphthoquinone]		0.805	2.31	2.29	9.41	9.33
Nc1nc(N)nc(Nc2ccc([As]3SCC(CO)S3)cc2)n1 (stereo not shown) [Mel., melarsoprol, reference compound]		24.2			0.006	0.00603
COc1cc([C@@H]2c3cc4c(cc3[C@H](O)[C@H]3COC(=O)[C@H]23)OCO4)cc(OC)c1OC [Pod., podophyllotoxin, reference compound]		0.024				
